Results on 37 compounds are retold here after ChEMBL document CHEMBL1148293 (J Med Chem, 2004).

pKi: −log10 of the molar value. A value given as a limit tells only on which side of the number the result lay.

As a reminder, the pKi is the negative decadic logarithm of the Ki, by convention in mol/L.

One assay has as its target Mu-type opioid receptor (Cavia porcellus, UniProt P97266). In words: Binding affinity against opioid receptor mu 1 using [3H]DAMGO as radioligand in guinea pig brain membranes. It counts as cell membranes.
In assay [1] the target is Kappa-type opioid receptor (Cavia porcellus, UniProt P41144). Briefly: Binding affinity against opioid receptor kappa 1 using [3H]-U-69,593 as radioligand in guinea pig brain membranes. In kind it is cell membranes.
In assay [2] the target is Opioid receptors; delta & kappa (UniProt P41145+P41143). Briefly: Selectivity ratio expressed as Ki of delta opioid receptor to that of kappa opioid receptor. It counts as protein assay. The following applies: Cavia porcellus.
Assay [3] concerns Opioid receptors; mu & delta. In words: Selectivity ratio expressed as Ki of delta opioid receptor to that of mu opioid receptor. It counts as protein assay. Particulars: Cavia porcellus.

Chain of Opioid receptors; delta & kappa (P41143 whole entry, looked up): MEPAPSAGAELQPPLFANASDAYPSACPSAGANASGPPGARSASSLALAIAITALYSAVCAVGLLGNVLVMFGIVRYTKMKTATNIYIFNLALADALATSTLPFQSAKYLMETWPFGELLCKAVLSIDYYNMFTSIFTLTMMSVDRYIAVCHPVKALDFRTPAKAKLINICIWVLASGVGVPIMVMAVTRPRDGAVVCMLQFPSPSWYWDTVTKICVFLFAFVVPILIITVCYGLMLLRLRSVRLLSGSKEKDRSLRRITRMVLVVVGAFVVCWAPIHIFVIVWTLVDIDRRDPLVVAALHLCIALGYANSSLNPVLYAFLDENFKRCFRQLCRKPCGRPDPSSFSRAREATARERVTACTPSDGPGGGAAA
Chain of Opioid receptors; delta & kappa (P41145 whole entry, looked up): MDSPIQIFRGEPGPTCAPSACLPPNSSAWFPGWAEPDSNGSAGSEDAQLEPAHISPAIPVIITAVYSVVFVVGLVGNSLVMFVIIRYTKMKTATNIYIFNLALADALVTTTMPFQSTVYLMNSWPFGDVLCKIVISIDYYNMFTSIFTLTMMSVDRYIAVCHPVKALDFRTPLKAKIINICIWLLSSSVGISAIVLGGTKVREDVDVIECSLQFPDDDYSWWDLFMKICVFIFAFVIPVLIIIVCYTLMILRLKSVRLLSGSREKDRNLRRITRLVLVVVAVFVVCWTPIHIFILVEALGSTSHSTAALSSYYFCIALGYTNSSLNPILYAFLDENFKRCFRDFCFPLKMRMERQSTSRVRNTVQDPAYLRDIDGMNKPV
Chain of Mu-type opioid receptor (P97266 whole entry): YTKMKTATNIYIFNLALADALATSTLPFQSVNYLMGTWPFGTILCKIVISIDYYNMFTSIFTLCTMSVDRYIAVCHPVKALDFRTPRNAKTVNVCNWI
Chain of Kappa-type opioid receptor (P41144 whole entry): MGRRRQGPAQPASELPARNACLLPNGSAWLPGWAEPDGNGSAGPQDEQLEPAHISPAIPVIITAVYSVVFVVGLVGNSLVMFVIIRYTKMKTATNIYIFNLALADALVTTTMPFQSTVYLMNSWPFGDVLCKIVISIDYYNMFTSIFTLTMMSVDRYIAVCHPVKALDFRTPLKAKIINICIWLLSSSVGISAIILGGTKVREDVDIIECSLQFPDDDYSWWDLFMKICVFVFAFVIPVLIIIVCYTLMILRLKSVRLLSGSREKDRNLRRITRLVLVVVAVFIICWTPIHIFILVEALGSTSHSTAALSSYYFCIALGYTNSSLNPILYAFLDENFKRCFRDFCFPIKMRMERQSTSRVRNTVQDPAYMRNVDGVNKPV

For `Nc1ccc2c(c1)[C@@]13CCCC[C@H]1[C@@H](C2=O)N(CC1CCC1)CC3`, the pKi on Mu-type opioid receptor was 7.64; in assay [1], 8.33. Moreover, the values for the Selectivity in assay [2] and in assay [3] were 130 and 26, respectively.

Consider `O=C1c2ccc(O)cc2[C@@]23CCCC[C@H]2[C@@H]1N(C[C@@H]1CCCO1)CC3`, for which the negative logarithm of the Ki (pKi) at Mu-type opioid receptor is 9.42; in assay [1], 9.74. The Selectivity was 5.6 in assay [2] and 2.6 in assay [3].

For `O=C1c2ccc(O)cc2[C@@]23CCCC[C@H]2[C@@H]1N(CCF)CC3`, the pKi at Mu-type opioid receptor was 6.25; in assay [1], 6.60. Besides, the Selectivity is over 40 in assay [2] and over 18 in assay [3].

Regarding `C#CCOc1ccc2c(c1)[C@@]13CCCC[C@H]1[C@@H](C2=O)N(CC#C)CC3`, the results for the negative logarithm of the Ki (pKi) (on Mu-type opioid receptor; in assay [1]) were 6.15 and 6.30, respectively. For the same compound, the Selectivity was over 20 in assay [2] and over 14 in assay [3].

With `O=C1c2ccc(O)cc2[C@@]23CCCC[C@H]2[C@@H]1N(CCCF)CC3`, the pKi on Mu-type opioid receptor was 7.70; in assay [1], 8.60.

Consider `Nc1ccc2c(c1)[C@@]13CCCC[C@H]1[C@@H](C2)N(CC1CC1)CC3`, for which the negative-log Ki (pKi) was 8.89 on Mu-type opioid receptor and 9.74 in assay [1]. Besides, the Selectivity in assay [2] was 830; in assay [3], 120.

As to `CC(C)=CCN1CC[C@]23CCCC[C@H]2[C@H]1C(=O)c1ccc(O)cc13`, the pKi at Mu-type opioid receptor was 7.72; in assay [1] it was 8.13. Further, the Selectivity worked out at 150 in assay [2] and 58 in assay [3].

In the case of `NC(=O)c1ccc2c(c1)[C@@]13CCCC[C@H]1[C@@H](C2=O)N(CC1CCC1)CC3`, the pKi is 8.60 on Mu-type opioid receptor and 8.57 in assay [1]. In addition, the Selectivity in assay [2] worked out at 19; in assay [3], 20.

`c1cc2c(cc1-c1nnn[nH]1)[C@@]13CCCC[C@H]1[C@@H](C2)N(CC1CCC1)CC3`: the results for the pKi (at Mu-type opioid receptor; in assay [1]) were 5.96 and 6.07, respectively.

In turn, `N#Cc1ccc2c(c1)[C@@]13CCCC[C@H]1[C@@H](C2=O)N(CC1CCC1)CC3` had a pKi in assay [1] of 6.40.

On to `CN1CC[C@]23CCCC[C@H]2[C@H]1Cc1ccc(CN)cc13`, for which the negative-log Ki (pKi) on Mu-type opioid receptor was 7.18; in assay [1], 6.92. Also, the Selectivity in assay [2] is over 21; in assay [3], over 38.

Consider `O=C1c2ccc(O)cc2[C@@]23CCCC[C@H]2[C@@H]1N(Cc1ccc2ccccc2c1)CC3`, for which the pKi on Mu-type opioid receptor is 5.66; in assay [1] it was 6.11. Also, the Selectivity in assay [2] was over 13; in assay [3] it was over 4.5.

Regarding `Oc1ccc2c(c1)[C@@]13CCCC[C@H]1[C@@H](C2)N(CC1CCC1)CC3` [BUTORPHAN], the pKi in assay [1] is 10.10. The Selectivity in assay [2] was 75; in assay [3], 26.

Turning to `O=C1c2ccc(O)cc2[C@@]23CCCC[C@H]2[C@@H]1NCC3`, the pKi on Mu-type opioid receptor is 7.70; in assay [1], 7.60. The Selectivity was over 400 in assay [2] and over 500 in assay [3].

Consider `CN1CC[C@]23CCCC[C@H]2[C@H]1Cc1ccc(C(N)=O)cc13`, for which the pKi on Mu-type opioid receptor was 10.14; in assay [1], 8.41. For the same compound, the Selectivity in assay [2] came out at 3.3; in assay [3], 180.

As for `NC(=O)c1ccc2c(c1)[C@@]13CCCC[C@H]1[C@@H](C2)N(CC1CC1)CC3`, the pKi on Mu-type opioid receptor is 10.23; in assay [1], 9.74. The figures for the Selectivity in assay [2] and in assay [3] were 5.6 and 17, respectively.

For `CN1CC[C@]23CCCC[C@H]2[C@H]1C(=O)c1ccc(O)cc13`, the pKi at Mu-type opioid receptor was 7.68; in assay [1], 7.33. For the same compound, the results for the Selectivity in assay [2] and in assay [3] were 26 and 57, respectively.

Turning to `O=C1c2ccc(O)cc2[C@@]23CCCC[C@H]2[C@@H]1N(CC1CCC1)CC3`, the pKi is 8.48 on Mu-type opioid receptor and 9.32 in assay [1]. Also, the Selectivity in assay [2] stood at 540; in assay [3], 79.

Turning to `COc1ccc2c(c1)[C@@]13CCCC[C@H]1[C@H](NCC3)C2=O`, the figures for the pKi (on Mu-type opioid receptor; in assay [1]) were 6.96 and 6.41, respectively. The Selectivity in assay [2] stood at 0.04; in assay [3], 0.14.

Consider `C#CCN1CC[C@]23CCCC[C@H]2[C@H]1C(=O)c1ccc(O)cc13`, for which the results for the pKi (at Mu-type opioid receptor; in assay [1]) were 6.72 and 7.22, respectively. Further, the Selectivity in assay [2] is 38; in assay [3] it was 12.

With `O=C1c2ccc(-c3nn[nH]n3)cc2[C@@]23CCCC[C@H]2[C@@H]1N(CC1CCC1)CC3`, the Selectivity amounted to 5 in assay [2] and 7.8 in assay [3].

On to `O=C1c2ccc(OCC3CCC3)cc2[C@@]23CCCC[C@H]2[C@@H]1N(CC1CCC1)CC3`, for which the negative-log Ki (pKi) on Mu-type opioid receptor was 6.10; in assay [1], 6.54. The Selectivity is 35 in assay [2] and over 12 in assay [3].

Consider `N#Cc1ccc2c(c1)[C@@]13CCCC[C@H]1[C@@H](C2)N(CC1CCC1)CC3`, for which the pKi on Mu-type opioid receptor is 7.43; in assay [1] it was 8.22. Besides, the figures for the Selectivity in assay [2] and in assay [3] were 320 and 51, respectively.

Compound `NC(=O)c1ccc2c(c1)[C@@]13CCCC[C@H]1[C@@H](C2)N(CC1CCC1)CC3` gave a negative-log Ki (pKi) in assay [1] of 10.06.

Take `O=C(Nc1ccc2c(c1)[C@@]13CCCC[C@H]1[C@@H](C2=O)N(CC1CCC1)CC3)c1ccccc1`: the pKi at Mu-type opioid receptor was 8.36; in assay [1], 8.11. Also, the Selectivity worked out at 49 in assay [2] and 86 in assay [3].

On to `CN1CC[C@]23CCCC[C@H]2[C@H]1Cc1ccc(N)cc13`, for which the pKi was 8.10 at Mu-type opioid receptor and 6.96 in assay [1]. Further, the Selectivity in assay [2] was found to be 14; in assay [3], 190.

For `Nc1ccc2c(c1)[C@@]13CCCC[C@H]1[C@@H](C2)N(CC1CCC1)CC3`, the negative-log Ki (pKi) is 8.43 at Mu-type opioid receptor and 8.74 in assay [1]. Also, the Selectivity in assay [2] is 100; in assay [3] it was 49.

On to `O=C(O)c1ccc2c(c1)[C@@]13CCCC[C@H]1[C@@H](C2=O)N(CC1CCC1)CC3`, for which the pKi at Mu-type opioid receptor was 7.55; in assay [1] it was 7.23. In addition, the Selectivity in assay [2] turned out to be 14; in assay [3], 29.

`CN1CC[C@]23CCCC[C@H]2[C@H]1Cc1ccc(-c2nnn[nH]2)cc13`: the negative-log Ki (pKi) (at Mu-type opioid receptor; in assay [1]) was 6.42 throughout.

For the compound `NCc1ccc2c(c1)[C@@]13CCCC[C@H]1[C@@H](C2)N(CC1CCC1)CC3`, the pKi (on Mu-type opioid receptor; in assay [1]) was 8.07 in each case. The Selectivity in assay [2] and in assay [3] was 48 each time.

With `CN1CC[C@]23CCCC[C@H]2[C@H]1Cc1ccc(O)cc13`, the Selectivity in assay [2] worked out at 1.8; in assay [3], 20.

For `O=C1c2ccc(O)cc2[C@@]23CCCC[C@H]2[C@@H]1N(CC1CC1)CC3`, the negative-log Ki (pKi) on Mu-type opioid receptor was 6.62; in assay [1], 7.62. Further, the Selectivity in assay [2] worked out at 6; in assay [3], 0.6.

As to `O=C1c2ccc(-c3nnn[nH]3)cc2[C@@]23CCCC[C@H]2[C@@H]1N(CC1CCC1)CC3`, the pKi on Mu-type opioid receptor is 6.64; in assay [1], 6.44.

With `O=C1c2ccc(O)cc2[C@@]23CCCC[C@H]2[C@@H]1N(CCc1ccccc1)CC3`, the pKi at Mu-type opioid receptor is 9.20; in assay [1], 8.11. Moreover, the Selectivity in assay [2] was 1.3; in assay [3], 15.

Turning to `CN1CC[C@]23CCCC[C@H]2[C@H]1Cc1ccc(-c2nn[nH]n2)cc13`, the Selectivity in assay [2] and in assay [3] was over 26 each time.

In the case of `CN1CC[C@]23CCCC[C@H]2[C@H]1Cc1ccc(C#N)cc13`, the pKi at Mu-type opioid receptor was 7.70; in assay [1], 6.70. The Selectivity in assay [2] is over 5; in assay [3] it was over 500.

With `c1cc2c(cc1-c1nn[nH]n1)[C@@]13CCCC[C@H]1[C@@H](C2)N(CC1CCC1)CC3`, the Selectivity in assay [2] was over 12; in assay [3], over 9.
